According to ChEMBL document CHEMBL6096653, “α-GalCer sp2-iminoglycolipid analogs as CD1d-dependent iNKT modulators: Evaluation of their immunotherapeutic potential in murine models of asthma and autoimmune hepatitis” (Eur J Med Chem, 2025):
The source made the active and inactive calls. No cut-off for these calls is given here.

Tests used:
Splenocyte [1] = assay: Immunostimulatory activity in BALB/c mouse Splenocyte assessed as induction of IFNgamma level at 25 uM incubated for 48 hrs by ELISA analysis; format: functional, cell-based
Splenocyte [2] = assay: Immunostimulatory activity in BALB/c mouse Splenocyte assessed as induction of IL-4 level at 25 uM incubated for 48 hrs by ELISA analysis; format: functional, cell-based
[3] = system: iNKT hybridoma DN3A4-1.2 cell; assay: Immunostimulatory activity in mouse iNKT hybridoma DN3A4-1.2 cell assessed as induction of IL-2 secretion at 10 to 25 uM incubated for 48 hrs in presence of alpha-GalCer by ELISA analysis; format: functional, cell-based; conditions: dose 10-25 µM
[4] = system: iNKT hybridoma DN3A4-1.2 cell; assay: Immunostimulatory activity in mouse iNKT hybridoma DN3A4-1.2 cell assessed as induction of IL-2 level at 10 to 25 uM incubated for 48 hrs by ELISA analysis; format: functional, cell-based; conditions: dose 10-25 µM
Splenocyte [5] = assay: Cytotoxicity against mouse Splenocyte assessed as cell viability at 25 uM by AlamarBlue assay; format: toxicity, cell-based
Splenocyte [6] = assay: Immunostimulatory activity in Cd1d knockout BALB/c mouse Splenocyte assessed as effect on of IFNgamma level at 10 to 25 uM incubated for 48 hrs by ELISA analysis; format: functional, cell-based; conditions: dose 10-25 µM
Splenocyte [7] = assay: Immunostimulatory activity in Cd1d knockout BALB/c mouse Splenocyte assessed as effect on of IL-4 level at 10 to 25 uM incubated for 48 hrs by ELISA analysis; format: functional, cell-based; conditions: dose 10-25 µM
Splenocyte [8] = assay: Immunostimulatory activity in BALB/c mouse Splenocyte assessed as induction of IL-4 level at 10 to 25 uM incubated for 48 hrs by ELISA analysis; format: functional, cell-based; conditions: dose 10-25 µM
Mus musculus [9] = assay: Anti-asthmatic activity in alpha-Galcer-induced female BALB/c mouse model assessed as reduction in IL-6 mRNA level in lung at 20 microg/g ip measured after 24 hrs by RT-PCR analysis; format: functional, organism-based; conditions: dose 20.0 µg/g
Splenocyte [10] = assay: Immunostimulatory activity in BALB/c mouse Splenocyte assessed as induction of IFNgamma level at 10 to 25 uM incubated for 48 hrs by ELISA analysis; format: functional, cell-based; conditions: dose 10-25 µM
Mus musculus [11] = assay: Immunostimulatory activity in Th1-biased (OT-1) C57BL/6 mouse model transplanted with mouse Splenocyte assessed as increase in OVA-specific CD8+ T cells proliferation at 1 to 400 ug, ip pretreated with compound and ovalbumin for 2 hrs and measured after 2 days by flow cytometry analysis; format: functional, organism-based; conditions: dose 1-400 µg, time 50.0 hrs
Mus musculus [12] = assay: Immunostimulatory activity in Th1-biased (OT-1) C57BL/6 mouse model transplanted with mouse Splenocyte assessed as increase in OVA-specific CD8+ T cells proliferation at 1 to 400 ug, ip pretreated with compound and ovalbumin for 2 hrs and measured after 3 days by flow cytometry analysis; format: functional, organism-based; conditions: dose 1-400 µg, time 74.0 hrs
Mus musculus [13] = assay: Immunostimulatory activity in ip dosed Th1-biased (OT-1) C57BL/6 mouse model transplanted with mouse Splenocyte assessed as increase in OVA-specific CD8+ T cells proliferation pretreated with compound and ovalbumin for 2 hrs and measured after 2 days by flow cytometry analysis; format: functional, organism-based; conditions: dose 400.0 µg, time 50.0 hrs
Mus musculus [14] = assay: Immunostimulatory activity in ip dosed Th1-biased (OT-1) C57BL/6 mouse model transplanted with mouse Splenocyte assessed as increase in OVA-specific CD8+ T cells proliferation pretreated with compound and ovalbumin for 2 hrs and measured after 3 days by flow cytometry analysis; format: functional, organism-based; conditions: dose 400.0 µg
[15] = Toxicity in C57BL/6J mouse assessed as liver damage at 20 microg/g, ip measured after 18 hrs by H and E staining based analysis; format: organism-based; conditions: in vivo, dose 20 µg/g
[16] = Toxicity in C57BL/6J mouse assessed as decrease in AST level in serum at 20 microg/g, ip measured after 18 hrs; format: organism-based; conditions: in vivo, dose 20 µg/g
[17] = Toxicity in C57BL/6J mouse assessed as decrease in ALT level in serum at 20 microg/g, ip measured after 18 hrs; format: organism-based; conditions: in vivo, dose 20 µg/g
Mus musculus [18] = assay: Anti-inflammatory activity in ConA-induced autoimmune hepatitis C57BL/6 mouse model assessed as reduction in IL-6 level in serum at 20 microg/g, ip pretreated with ConA for 18 hrs followed by compound addition and measured after 18 hrs; format: functional, organism-based; conditions: dose 20.0 µg/g
Mus musculus [19] = assay: Anti-inflammatory activity in ConA-induced autoimmune hepatitis C57BL/6 mouse model assessed as reduction in TNF-alpha level in serum at 20 microg/g, ip pretreated with ConA for 18 hrs followed by compound addition and measured after 18 hrs; format: functional, organism-based; conditions: dose 20.0 µg/g
Mus musculus [20] = assay: Anti-asthmatic activity in alpha-Galcer-induced female BALB/c mouse model assessed as inhibition of airway hyperreactivity at 20 microg/g ip measured after 24 hrs; format: functional, organism-based; conditions: dose 20.0 µg/g
Mus musculus [21] = assay: Anti-asthmatic activity in alpha-Galcer-induced female BALB/c mouse model assessed as reduction in TNF-alpha mRNA level in lung at 20 microg/g ip measured after 24 hrs by RT-PCR analysis; format: functional, organism-based; conditions: dose 20.0 µg/g
Mus musculus [22] = assay: Anti-asthmatic activity in alpha-Galcer-induced female BALB/c mouse model assessed as reduction in Muc5ac mRNA level in lung at 20 microg/g ip measured after 24 hrs by RT-PCR analysis; format: functional, organism-based; conditions: dose 20.0 µg/g
Mus musculus [23] = assay: Anti-asthmatic activity in alpha-Galcer-induced female BALB/c mouse model assessed as reduction in Gob5 mRNA level in lung at 20 microg/g ip measured after 24 hrs by RT-PCR analysis; format: functional, organism-based; conditions: dose 20.0 µg/g

SMILES	Activity (Splenocyte [1])	Activity (Splenocyte [2])	Activity [3]	Activity [4]	Activity (Splenocyte [6])	Activity (Splenocyte [7])	Activity (Splenocyte [8])	further results
CCCCCCCCCCCCCCCCCCCCCCCCCC(=O)N[C@@H](CO[C@@H]1[C@H](O)[C@@H](O)[C@H](O)[C@H]2COC(=O)N21)[C@H](O)[C@H](O)CCCCCCCCCCCCCC	inactive	inactive	Active	inactive				
CCCCCCCCCCCCCCCCCCCCCCCCCC(=O)N[C@@H](CO[C@@H]1[C@H](O)[C@@H](O)[C@@H](O)[C@H]2COC(=O)N21)[C@H](O)[C@H](O)CCCCCCCCCCCCCC	inactive	inactive	Active	inactive				
CCCCCCCCCCCCCC[C@@H](O)[C@@H](O)[C@H](CO[C@@H]1[C@H](O)[C@@H](O)[C@@H](O)[C@H]2COC(=O)N21)n1cc(CCCCCC)nn1	inactive	Active			inactive	inactive	Active	Activity (Splenocyte [5]): Toxic
CCCCCCCCCCCCCC[C@@H](O)[C@@H](O)[C@H](CO[C@@H]1[C@H](O)[C@@H](O)[C@@H](O)[C@H]2COC(=O)N21)n1cc(CCCCCCCC)nn1	Active	Active	Active	Active	inactive	inactive	Active	Activity (Mus musculus [9]): Active; Activity (Splenocyte [10]): Active; Activity (Mus musculus [11]): Active; Activity (Mus musculus [12]): Active; Activity (Mus musculus [13]): Dose-dependent-effect; Activity (Mus musculus [14]): Dose-dependent-effect; Activity [15]: Non-toxic; Activity [16]: Non-toxic; Activity [17]: Non-toxic; Activity (Mus musculus [18]): Active; Activity (Mus musculus [19]): Active; Activity (Mus musculus [20]): Active; Activity (Mus musculus [21]): Active; Activity (Mus musculus [22]): Active; Activity (Mus musculus [23]): Active
CCCCCCCCCCCCCC[C@@H](O)[C@@H](O)[C@H](CO[C@@H]1[C@H](O)[C@@H](O)[C@@H](O)[C@H]2COC(=O)N21)n1cc(CCCCCCCCCCCC)nn1	inactive	Active			inactive	inactive	Active	
CCCCCCCCCCCCCC[C@@H](O)[C@@H](O)[C@H](CO[C@@H]1[C@H](O)[C@@H](O)[C@@H](O)[C@H]2COC(=O)N21)n1cc(CCCC)nn1	inactive							
